Data published in patent US7579353B2, “Pyridinone derivatives against malaria” (Glaxo Group Limited, priority 2005, dated 2009).

Tested on: Plasmodium falciparum
Assay: In vitro anti-malarial activity against Plasmodium falciparum, IC50 assay / [3H]-hypoxanthine incorporation assay
Assay type: cell-based
Conditions: Erythrocyte, parasitized red blood cells, 48 hours
Method: In Vitro Anti-malarial Activity Against Plasmodium falciparum
IC50 Assay/[^3H]-Hypoxanthine Assay
Plasmodium falciparum strains.
The culture medium comprised RPMI 1640 with 25 mM HEPES, sodium bicarbonate and glutamine (GIBCO™ cat. ref.: 52400), supplemented with 10% of pooled human sera AB (Irvine Scientific, cat. ref.: 5009) and HT supplement (0.15 mM hypoxanthine and 24 μM thymidine), (GIBCO™ cat. ref.: 41065). Human sera were decomplemented 30 min. at 56° C., aliquoted and stored frozen at −20° C. until use in this culture medium.
Red blood cells O+ stock suspensions were prepared from whole blood bags coming from incomplete blood donation, provided by the Spanish Red Cross (<25 days after sampling). This “whole blood” was aliquoted and stored at 4° C.
To prepare red blood cells for the assay, the whole blood was centrifuged and washed 3 times with RPMI without serum. The upper phase, containing white blood cells was removed. The washed red blood cells were kept as a 50% suspension in complete medium. The prepared cells were stored at 4° C. and were employed in the assay at any time up to 4 days after preparation.
Test compounds were dissolved at 2 mg/ml in 100% DMSO on the day of the assay. If necessary, complete dissolution was achieved by gentle heating (the mixture was heated at a temperature <37° C.) and sonication (sonication bath).
For IC50 determinations, 10 serial 2-fold dilutions were prepared in complete medium in the presence of a constant amount of DMSO.
Plasmodium falciparum strains were maintained in complete medium at an hematocrit of 5% in continuous culture using a method adapted from Trager and Jensen (1, 2).
The parasitemia was calculated by counting the percentage of parasitized erythrocytes by optical microscopy. Thin films of blood were made every day from each culture flask, fixed with methanol and stained for 10 min. in Giemsa (Merck, cat ref.: 1.09204) at 10% in buffered water pH 7.2. The glass slides were observed and counted with an optical microscope (Nikon, Eclipse E200) equipped with a 100× immersion oil objective.
The culture was maintained at an hematocrit of 5%, with a daily change of medium and was diluted when parasitemia had reached about 5%.
[^3H] Hypoxanthine incorporation assay was conducted using a method adapted from Desjardins et al. (3). The assays were performed in 96 wells flat bottom microplates.
1. Serial dilutions of the test compounds (50 μl of a 5× solution/well) were deposited in duplicate. Compounds of the invention were tested in this assay. Chloroquine and Atovaquone were used as control compounds for each assay.
3. [^3H]-Hypoxanthine (Amersham Biosciences, cat. ref.: TRK74) was added extemporaneously to the inoculum suspension at a concentration of 1 μCi/ml (equating to […]). 200 μl of the resulting suspension was distributed into each well (other than the control well H12 described below) leading to a final volume of 250 μl per well, at 2% of hematocrit and 0.5% of parasitemia/well.
4. In each plate, 2 columns were reserved for control wells: • Column 11: Positive control wells: PRBCs with 0.2% DMSO—(i) to determine DMSO solvent effect on parasite growth (at a final concentration of 0.2%) and (ii) to compare with cultures treated with test compounds. • Column 12 (comprising wells A12-H12): • A12-D12—Background value wells: Uninfected RBCs—blank control to obtain the background reading from RBCs without parasites. • E12-G12—Solvent effect wells: PRBCs without DMSO—to determine DMSO solvent effect on PRBCs by comparing these wells with column 11 wells. • H12-Non-radioactive well: PRBCs with cold hypoxanthine—(i) to carry out a thin blood film to determine parasitemia value after incubation by microscopy and (ii) to ensure that the parasites have grown properly during the assay. (200 μl of inoculum suspension was prepared as described above (Items 2 and 3) but with non-tritiated hypoxanthine instead of [3H]-hypoxanthine, then added to this well to a final volume of 250 μl). […]

Row | SMILES | IC50 [µg/mL]
1 | Cc1[nH]c(C)c(-c2ccc(-c3ccc(C(F)(F)F)cc3Cl)nc2)c(=O)c1Cl [Example 55, 5-chloro-6′-[2-chloro-4-(trifluoromethyl)phenyl]-2,6-dimethyl-3,3′-bipyridin-4(1H)-one] | < 0.125
2 | Cc1[nH]c(C)c(-c2ccc(OCc3ccccc3C(F)(F)F)nc2)c(=O)c1Br [Example 4, 5-Bromo-2,6-dimethyl-6′-{[2-(trifluoromethyl)benzyl]oxy}-3,3′-bipyridin-4(1H)-one] | < 0.125
3 | Cc1[nH]c(C)c(-c2ccc(CCc3ccc(F)cc3F)nc2)c(=O)c1Cl [Example 46, 5-Chloro-6′-{2-[2,4-difluorophenyl]ethyl}-2,6-dimethyl-3,3′-bipyridin-4(1H)-one] | < 0.125
4 | Cc1[nH]c(C)c(-c2ccc(-c3ccc4c(c3)OCO4)nc2)c(=O)c1Cl [Example 54] | < 0.125
5 | Cc1[nH]c(C)c(-c2ccc(-c3ccc(OC(F)(F)F)cc3)nc2)c(=O)c1Cl.Cl [Example 38, 5-Chloro-2,6-dimethyl-6′-{4-[(trifluoromethyl)oxy]phenyl}-3,3′-bipyridin-4(1H)-one] | < 0.125
6 | Cc1[nH]c(C)c(-c2ccc(-c3ccccc3OC(F)(F)F)nc2)c(=O)c1Cl [Example 29, 5-Chloro-2,6-dimethyl-6′-{2-[(trifluoromethyl)oxy]phenyl}-3,3′-bipyridin-4(1H)-one] | < 0.125
7 | Cc1[nH]c(C)c(-c2ccc(-c3cccc(C(F)(F)F)c3)nc2)c(=O)c1Cl [Example 31, 5-Chloro-2,6-dimethyl-6′-{3-[trifluoromethyl]phenyl}-3,3′-bipyridin-4(1H)-one] | < 0.125
8 | Cc1[nH]c(C)c(-c2ccc(Oc3cccc(C(F)(F)F)c3)cc2)c(=O)c1Cl [Compound Z, 3-Chloro-2,6-dimethyl-5-(4-{[3-(trifluoromethyl)phenyl]oxy}phenyl)-4(1H)pyridinone, reference compound] | < 0.125
9 | Cc1[nH]c(C)c(-c2ccc(OCc3cccc(C(F)(F)F)c3)nc2)c(=O)c1Cl [Example 9, 5-Chloro-2,6-dimethyl-6′-{[3-(trifluoromethyl)benzyl]oxy}-3,3′-bipyridin-4(1H)-one] | < 0.125
10 | Cc1[nH]c(C)c(-c2ccc(OCc3cc(C(F)(F)F)cc(C(F)(F)F)c3)nc2)c(=O)c1Cl [Example 12, 5-Chloro-2,6-dimethyl-6′-{[3,5-bis(trifluoromethyl)benzyl]oxy}-3,3′-bipyridin-4(1H)-one] | < 0.125

The remaining lines, values ahead:

Row | IC50 [µg/mL] | SMILES
11 | < 0.125 | Cc1[nH]c(C)c(-c2ccc(C#Cc3ccc(C(F)(F)F)cc3)nc2)c(=O)c1Cl [Example 41, 5-Chloro-2,6-dimethyl-6′-{[4-(trifluoromethyl)phenyl]ethynyl}-3,3′-bipyridin-4(1H)-one]
12 | < 0.125 | Cc1[nH]c(C)c(-c2ccc(-c3ccc(OC(F)(F)F)cc3)nc2)c(=O)c1Cl [Example 27, 5-Chloro-2,6-dimethyl-6′-{4-[(trifluoromethyl)oxy]phenyl}-3,3′-bipyridin-4(1H)-one]
13 | < 0.125 | Cc1[nH]c(C)c(-c2ccc(OCc3ccccc3C(F)(F)F)nc2)c(=O)c1Cl [Example 11, 5-Chloro-2,6-dimethyl-6′-{[2-(trifluoromethyl)benzyl]oxy}-3,3′-bipyridin-4(1H)-one]
14 | < 0.125 | Cc1[nH]c(C)c(-c2ccc(-c3cccc(OC(F)(F)F)c3)nc2)c(=O)c1Cl [Example 28, 5-Chloro-2,6-dimethyl-6′-{3-[(trifluoromethyl)oxy]phenyl}-3,3′-bipyridin-4(1H)-one]
15 | < 0.125 | Cc1[nH]c(C)c(-c2ccc(OCc3cc(F)cc(F)c3)nc2)c(=O)c1Br [Example 7, 5-Bromo-6′-{[3,5-difluorobenzyl]oxy}-2,6-dimethyl-3,3′-bipyridin-4(1H)-one]
16 | < 0.125 | Cc1[nH]c(C)c(-c2ccc(Oc3ccc(OC(F)(F)F)cc3)cc2)c(=O)c1Cl [Compound Y, 3-chloro-5-(4-(4-trifluoromethoxyphenoxy)phenyl)-2,6-dimethylpyridin-4(1H)-one, reference compound]
17 | < 0.125 | Cc1[nH]c(C)c(-c2ccc(CCc3ccc(C(F)(F)F)cc3)cn2)c(=O)c1Cl [Example 52, 5′-Chloro-2′,6′-dimethyl-5-{2-[4-(trifluoromethyl)phenyl]ethyl}-2,3′-bipyridin-4′(1′H)-one]
18 | < 0.125 | Cc1[nH]c(C)c(-c2ccc(OCc3ccc(F)cc3)nc2)c(=O)c1Cl [Example 13, 5-Chloro-6′-{[4-fluorobenzyl]oxy}-2,6-dimethyl-3,3′-bipyridin-4(1H)-one]
19 | < 0.125 | Cc1[nH]c(C)c(-c2ccc(OCc3cc(F)cc(F)c3)nc2)c(=O)c1Cl [Example 14, 5-Chloro-6′-{[3,5-difluorobenzyl]oxy}-2,6-dimethyl-3,3′-bipyridin-4(1H)-one]
20 | < 0.125 | CCCCCCCc1ccc(-c2c(C)[nH]c(C)c(Cl)c2=O)cn1 [Example 47, 5-Chloro-6′-(n-heptyl)-2,6-dimethyl-3,3′-bipyridin-4(1H)-one]
21 | < 0.125 | Cc1[nH]c(C)c(-c2cnc(-c3ccc(C(F)(F)F)cc3)nc2)c(=O)c1Cl [Example 64, 3-Chloro-2,6-dimethyl-5-(5-(2-(4-trifluoromethylphenyl))pyrimidinyl)pyridin-4(1H)-one]
22 | < 0.125 | Cc1[nH]c(C)c(-c2ccc(OCc3ccc(C(F)(F)F)cc3)nc2)c(=O)c1Br [Example 3, 5-Bromo-2,6-dimethyl-6′-{[4-(trifluoromethyl)benzyl]oxy}-3,3′-bipyridin-4(1H)-one]
